We go through 1 molecule from EPA's ToxValDB 9.5 (doi:10.2903/j.efsa.2005.33ar).

For orientation: NOAEL means the highest dose or exposure tested at which no adverse effect was seen.

The test system of one data set is Landoltia sp. To be noted: chronic/long-term; biomass.
In another data set the test system is Bird. Conditions: acute; oral; unspecified; mortality.
The next data set deals with Daphnia magna. Conditions: chronic/long-term; duration: 21 days; mobility.
In another data set the test system is Aphidius rhopalosiphi. To be noted: not reported; mortality.
The subject of the next data set is Rattus norvegicus. To be noted: for NOAEL: reproduction developmental.
A further data set concerns Canidae. To be noted: chronic; duration: 1 years; Dog Other; body weight.
The test system of another data set is Bibionidae. Conditions: chronic/long-term; duration: 26 days.
The subject of the next data set is Oryctolagus sp. To be noted: reproduction developmental; body weight.
In another data set the test system is Apis mellifera. Conditions: acute, dermal, mortality.

Consider `CC1(C)CC/C(=C\c2ccc(Cl)cc2)C1(O)Cn1cncn1` (stereo not drawn) [Triticonazole], for which the LC50 in the data set with Tagia sp. (acute, duration: 14 days, mortality) is over 1000 mg/kg; in the data set on Oncorhynchus mykiss (acute, duration: 96 hours, mortality), over 3.6 µg/mL. Moreover, the NOEC was 500 mg/kg in the data set on Tagia sp. (chronic/long-term, duration: 56 days, reproduction); 0.33 mg/L in the data set with Landoltia sp.; 0.01 mg/L in the data set on Oncorhynchus mykiss (chronic/long-term, duration: 28 days, growth); 0.092 mg/L with Daphnia magna; 0.0777 mg/L with Bibionidae. The LD50 is over 2000 mg/kg in the data set on Bird; over 2000 mg/kg in the data set with Rattus norvegicus (acute, mortality); over 693 mg/kg with Colinus virginianus (acute, oral, diet, mortality); over 156 µg/piece in the data set on Apis mellifera; over 100 µg/piece with Apis mellifera (duration: 48 hours). For the same molecule, the LEL with Aphidius rhopalosiphi was determined as 25 g/ha. The NOAEL with Rattus norvegicus (F) came to 48 mg/kg-day; in the data set on Rattus norvegicus (M), 49 mg/kg-day; with Canidae, 2.5 mg/kg-day; in the data set on Colinus virginianus (reproduction developmental), 19.5 mg/kg-day; in the data set with Oryctolagus sp. it was 5 mg/kg-day.
